Test results: publication PMC12734371, “Synthesis, Anti-Tumour, and Antibacterial Activities of Monocarbonyl Curcumin Analogues of Piperidones” (International Journal of Molecular Sciences, 2025)
Converted amounts (≈) assume the structure as drawn. “Also recorded” adds a separate entry of the source. Read-outs that look alike come from different tables or passages of the source.

Tests used:
HepG2 cells = test: MTT assay, inhibition of tumour cell growth; format: cell-based, human; details: mean ± s, n = 3
Protocol: (§1) The tumour cell suspension in logarithmic growth phase, containing about 5 × 10^3 cells, was taken and seeded onto a 96-well plate and gently shaken to disperse the cells evenly at the bottom of the plate. The cells were incubated in a constant temperature (37 °C) incubator for 24 h. The old medium was discarded, and 100 μL of the prepared working solution of piperidinone monocarbonyl curcumin analogues at different concentrations was added, and the cells were incubated in a constant temperature incubator for 24 h. Blank medium wells, blank cell wells, and 0.9% DMSO (highest content) wells were set up, with 6 multi-well and 3 multi-plates for each concentration. The discarded old medium was absorbed, and 100 μL of 10% 5 mg/mL MTT working solution was added to each well (operated away from light) and placed in a cell incubator for further incubation for 4 h. The old medium was discarded, and 100 μL of DMSO was added to each well and shaken in an air shaker at 100 RPM for 10 min. The absorbance of the OD value was measured at 490 nm by a multifunctional microplate analyzer. According to Formula (1), the inhibition rates of different piperidones monocarbonyl curcumin analograms on 4 tumour cells were calculated, and IC50 was calculated by GraphPad Prism 8.0:Inhibition rate (%) = (OD blank cell group − OD administration group)/OD blank cell group(1)

A549 cells [1] = test: MTT assay, inhibition of tumour cell growth; format: cell-based, human; details: mean ± s, n = 3
Protocol: as §1

MCF-7 cells = test: MTT assay, inhibition of tumour cell growth; format: cell-based, human; details: mean ± s, n = 3
Protocol: as §1

Hela cells = test: MTT assay, inhibition of tumour cell growth; format: cell-based, human; details: 24 h, mean ± s, n = 3
Protocol: as §1

[2] = test system: ERK (extracellular regulated protein kinases); test: Western blot, ERK level in A549 cells; format: cell-based, human; details: 10, 5, 2.5 μmol/L, 24 h
Protocol: A549 cells in logarithmic growth phase were seeded in 6-well plates at 1 × 10^6 cells/mL per well. The cells were cultured overnight in an incubator. Different concentrations of drug-containing medium of 2,5-2Cl, 2Br-5Cl, 2-Cl, 2-F, benzaldehyde ([…]), curcumin (20 μmol/L), and cisplatin (30 μmol/L) were added, and the blank control […] The RIPA cell lysis buffer containing protease inhibitors was added to the Petri dish to collect the proteins of each experimental group, and the supernatant was collected as a protein sample after ultrasonic centrifugation. Protein quantification was performed by the BCA method. A total of 20 μg protein was separated by 10% SDS-PAGE, and then the protein was transferred to a PVDF membrane. The membrane was blocked with 5% skim milk for 1 h, and the corresponding primary antibody was incubated at 4 °C overnight. After washing the membrane three times with TBST, the bands were incubated with the corresponding secondary antibodies at room temperature for 1 h. After cleaning the membrane with TBST 3 times, the darkroom was developed with ECL luminescence. Using GAPDH as an internal reference, the protein bands were analyzed by ImageJ 1.8.0.

MRSA [3] = test: AGAR plate zone of inhibition test (filter paper); format: cell-based, methicillin-resistant Staphylococcus aureus; details: 160 μmol/L, 6 mm filter paper, 16 h, mean ± s; for zone of inhibition at 160 µM: Staphylococcus aureus, n = 3, read-out: Diameter of Bacteriostatic Zone
Protocol: Based on the results of previous experiments, the promising compounds were selected, and the size of the inhibition zone at 160 μmol/L was determined. The specific operation was as follows: The nutrient agar medium, after high temperature sterilization, was poured into about 20 mL per 9 cm plate in an ultra-clean bench and naturally cooled and solidified. Each plate was evenly coated with 100 μL MRSA bacterial suspension. The filter paper of 6 mm diameter soaked in the drug solution was dried by flame evaporation, and four tablets were placed in parallel into each plate, cultured in a constant temperature incubator at 37 °C for 16 h, and the size of the inhibition zone was measured.

MRSA [4] = test: Broth microdilution inhibition test and MIC; format: cell-based, methicillin-resistant Staphylococcus aureus; details: for MIC: broth microdilution
Protocol: Then, the MIC values of 100% compounds at the maximum inhibitory concentration were obtained by the broth microdilution method. The specific experiments are as follows: First, in the 96-well plate, add 100 μL of compound working solution from column 2 to column 8, with concentrations decreasing from high to low, repeating each concentration 6 times. Add 100 μL of NB nutrient broth containing 1% DMSO to column 9, and 100 μL of blank NB nutrient broth to columns 10 and 11. Then, add 10 μL of bacterial suspension to each well from columns 2 to 10. Place the 96-well plate in a 37 °C incubator for 16 h at 100 rpm and measure the absorbance at 600 nm by microplate reader. Columns 2 to 9 represent the drug treatment group, column 10 is the negative control group, and column 11 is the blank control group. The minimum concentration that inhibits bacterial growth is the MIC value of the compound: Bacterial inhibition rate (%) = (OD administration − OD control)/(ODcontrol − OD blank) (3)

A549 cells [5] = test: Cell morphology by inverted microscope; format: cell-based, human; details: 5 μmol/L, 24 h
Protocol: The cells were inoculated in a 6-well plate, and about 1 × 10^6 A549 cells in the logarithmic growth phase were inoculated in each well. After the cells were cultured in a constant temperature incubator for 24 h, the old medium was discarded, and five kinds of piperidone monocarbonyl curcumin analogue solution (5, 10, and 20 μmol/L), curcumin (10, 20, and 40 μmol/L), and 0.9% DMSO were added as the blank control group for 24 h, and then the cell morphology was observed by inverted microscope (200×).

L02 cells = test: MTT assay, toxicity to human normal liver cells; format: cell-based; details: mean ± s, n = 3
Protocol: The cells were passaged to the fourth generation of L02 cells, and the cell suspension containing about 5 × 10^3 cells was added to each well of the 96-well plate and cultured in a cell culture incubator for 24 h. The old medium was discarded, and different concentrations of liquid medicine (6 porous and 3 plates for each concentration) were added and incubated for 24 h. The old medium was discarded, 10% of 5 mg/mL MTT working solution was added in the dark, and the cells were incubated in a cell incubator for 4 h. The old medium was discarded, 100 μL DMSO was added to each well, and 100 RPM was oscillated on an air shaker for 10 min. The OD value was measured at 490 nm with a multifunctional microplate reader. According to the OD value, the inhibition rate of different piperidone monocarbonyl curcumin analogues on L02 cells was calculated according to Formula (1), and IC50 was calculated by Graph Pad Prism 8.0.

A549 cells [6] = test: Cell wound scratch assay (migration); format: cell-based, human; details: 6 h; high, medium, and low concentrations
Protocol: A549 cells in logarithmic phase were digested with 0.25% trypsin and blown to single cell suspension with a dropper. The cell density was adjusted to 5 × 10^5 cells/mL. The cells were inoculated on 6-well plates, 2 mL per well, and cultured in a cell incubator at 37 °C, 5% CO2, and saturated humidity for 24 h until the gaps were basically fused. A 10 μL micro pipette tip was used to scratch vertically in a 6-well plate. After washing with PBS solution 3 times, the drug-containing medium was added, 2 mL per well, and three wells were set in each group. The culture plates were placed in a 5% CO2 incubator at 37 °C for 6 h and 24 h and observed and photographed with an inverted fluorescence microscope. The images were obtained by NIS Elements Viewer 4.2.0, and the scratch area and width were calculated. The cell migration rate was calculated by Formula (2):[Cell migration rate (%) = (0 h scratch area − scratch area at different times)/0 h scratch area × 100%](2)

MRSA [7] = test: Time inhibition curve against MRSA; format: cell-based, methicillin-resistant Staphylococcus aureus; details: 160 μmol/L and 80 μmol/L
Protocol: Based on the results of previous experiments, the promising compounds were selected. According to the administration method under ‘2.3.2’, the absorbance values of the promising compounds at 600 nm at different concentrations of bacteria at 4, 14, 18, and 24 h were measured by a microplate reader, and the inhibitory effect of the compounds on MRSA at different time points was calculated. The time inhibition curve of the compound against MRSA was made with the abscissa as the time and the ordinate as the bacterial inhibition rate.

A549 cells [8] = test: Flow cytometry apoptosis (Annexin V/PI); format: cell-based, human; details: 24 h
Protocol: The A549 cells in logarithmic growth phase were inoculated in 6-well plates at 1 × 10^6 cells. After resting in the incubator for 24 h, the cells were treated with different concentrations of drugs. The blank control group was added with the medium with the highest concentration of DMSO. After 24 h of culture, cells were collected, washed with PBS, transferred to a flow tube, and resuspended with 100 μL of 1 × Annexin V conjugate. Add 4 μL YF4/88-Annexin N and 5 μL PI working solution. The cells were incubated in the dark at room temperature for 10 min, transferred to a flow cytometer tube, added with 200 μL of 1 × Annexin V conjugate, and immediately detected by flow cytometry.

Row | Compound | IC50 (HepG2 cells; 24 h) [µM] | IC50 (A549 cells [1]; 24 h) [µM] | IC50 (MCF-7 cells; 24 h) [µM] | IC50 (Hela cells) [µM] | further results
1 | 3,5-Bis(2-bromo-benzyl)-4-piperidone | 7.03 ± 3.24 | 16.6 ± 1.84 | > 40 | 12.3 ± 2.67 | –
2 | 3,5-Bis(3,5-dibromo-benzyl)-4-piperidone [3,5-2Br] | > 40 | > 40 | > 40 | 12.8 ± 3.18 | –
3 | 3,5-Bis(4-bromo-benzyl)-4-piperidinone | 7.15 ± 4.62 | 15.5 ± 2.35 | 19.7 ± 3.68 | > 40 | –
4 | O=C1C(=Cc2ccccc2Cl)CNCC1=Cc1ccccc1Cl [2-Cl] | 8.53 ± 2.61 | 4.81 ± 1.69 | 5.7 ± 1.21 | 6.61 ± 1.93 | ERK protein level vs control group [2]: significantly lower; Diameter of Bacteriostatic Zone (MRSA [3]; n = 3): 14.67 ± 0.58 mm; Inhibition rate of MRSA (MRSA [4]; 60 μmol/L): less than 100%; Inhibition rate of MRSA (MRSA [4]; 70 μmol/L): 100%; Inhibition of MRSA (MRSA [4]; 160 μmol/L): 100%; MIC (MRSA [4]; MRSA): 70 µM (≈ 24.1 µg/mL); Cell morphology (A549 cells [5]): most of the cells became round and loose; IC50 (L02 cells; 24 h): 70.5 ± 1.85 µM; Cell migration rate vs blank control (0.9% DMSO) (A549 cells [6]): no statistical difference; Inhibition rate of MRSA over time (MRSA [7]; 18 h): 100%; Inhibition rate of MRSA over time (MRSA [7]; 24 h): 87.02%
5 | O=C1C(=Cc2ccc(Cl)cc2Br)CNCC1=Cc1ccc(Cl)cc1Br [2Br-4Cl] | 27.3 ± 2.64 | 18.2 ± 3.15 | > 40 | 23.4 ± 3.34 | –
6 | O=C1C(=Cc2ccc(F)cc2Br)CNCC1=Cc1ccc(F)cc1Br [2Br-4F] | 18.3 ± 4.38 | 21.8 ± 3.68 | > 40 | > 40 | –
7 | O=C1C(=Cc2cc(Cl)ccc2Br)CNCC1=Cc1cc(Cl)ccc1Br [2Br-5Cl] | 8.42 ± 1.99 | 4.75 ± 1.51 | 6.36 ± 1.28 | 6.24 ± 2.46 | ERK protein level vs control group [2]: significantly lower; also recorded: most obvious; Cell morphology (A549 cells [5]): most of the cells became round and loose; IC50 (L02 cells; 24 h): 58.2 ± 2.79 µM; Cell migration rate vs blank control (0.9% DMSO) (A549 cells [6]): no statistical difference
8 | O=C1C(=Cc2ccc(Cl)c(Cl)c2)CNCC1=Cc1ccc(Cl)c(Cl)c1 [3,4-2Cl, 3,5-Bis(3,4-dichlorobenzylidene)-4-piperidone] | – | – | – | – | IC50 (HepG2 cells; Homo sapiens, HepG2, 24 h): > 40 µM; IC50 (A549 cells [1]; Homo sapiens, A549, 24 h): 11.9 ± 4.64 µM; IC50 (MCF-7 cells; Homo sapiens, MCF7, 24 h): > 40 µM; IC50 (Hela cells; Homo sapiens, HeLa): > 40 µM
9 | O=C1C(=Cc2cccc(Br)c2)CNCC1=Cc1cccc(Br)c1 [3-Br] | 18.3 ± 3.44 | > 40 | 22.5 ± 3.55 | > 40 | –
10 | O=C1C(=Cc2ccc(Br)cc2F)CNCC1=Cc1ccc(Br)cc1F [4Br-2F] | 16.4 ± 1.97 | 20.2 ± 4.15 | 28.5 ± 2.91 | 18.7 ± 3.66 | –
11 | O=C1C(=Cc2cc(Br)ccc2Cl)CNCC1=Cc1cc(Br)ccc1Cl [5Br-2Cl] | 29.3 ± 2.94 | 14.2 ± 3.85 | > 40 | > 40 | –
12 | N.N.[Cl][Pt][Cl] [Cisplatin solution, reference compound] | 27.7 ± 3.26 | 41.2 ± 3.49 | 55.2 ± 4.09 | 59.4 ± 1.7 | IC50 (L02 cells; 24 h): 48.4 ± 3.83 µM; Proportion of normal cells (flow cytometry) (A549 cells [8]; 30 μmol/L): 86.27%
13 | COc1cc(/C=C/C(=O)CC(=O)/C=C/c2ccc(O)c(OC)c2)ccc1O [Curcumin] | – | – | – | – | IC50 (HepG2 cells; Homo sapiens, HepG2, 24 h): 17.6 ± 3.43 µM; IC50 (A549 cells [1]; Homo sapiens, A549, 24 h): 33.5 ± 3.83 µM; IC50 (MCF-7 cells; Homo sapiens, MCF7, 24 h): 39.2 ± 2.81 µM; IC50 (Hela cells; Homo sapiens, HeLa): 29.2 ± 2.57 µM; IC50 (L02 cells; Homo sapiens, L02, 24 h): 30.4 ± 1.04 µM; Proportion of normal cells (flow cytometry) (A549 cells [8]; 20 μmol/L): 84.27%
14 | CC1(C)S[C@@H]2[C@H](NC(=O)Cc3ccccc3)C(=O)N2[C@H]1C(=O)O [Penicillin] | – | – | – | – | zone of inhibition at 160 µM (MRSA [3]): 8.67 ± 0.58 mm
15 | NC[C@H]1O[C@H](O[C@H]2[C@H](O)[C@@H](O[C@H]3O[C@H](CO)[C@@H](O)[C@H](N)[C@H]3O)[C@H](N)C[C@@H]2N)[C@H](N)C[C@@H]1O [Tobramycin, reference compound] | – | – | – | – | zone of inhibition at 160 µM (MRSA [3]): 10.7 ± 0.58 mm; inhibition at 70 µM (MRSA [4]; Staphylococcus aureus, MRSA, 70 μmol/L, read-out: Inhibition rate of MRSA): < 100%; inhibition at 80 µM (MRSA [4]; Staphylococcus aureus, MRSA, 80 μmol/L, read-out: Inhibition rate of MRSA): 100%; inhibition at 160 µM (MRSA [4]; Staphylococcus aureus, MRSA, 160 μmol/L): 100%; MIC (MRSA [4]; Staphylococcus aureus, MRSA, read-out: MIC): 80 µM (≈ 37.4 µg/mL)
